Here are results for 9 compounds from ChEMBL document CHEMBL3351983, “Synthesis and biological evaluation of substituted 3-anilino-quinolin-2(1H)-ones as PDK1 inhibitors” (Bioorg Med Chem, 2014).

For assay [1], the target named is T1, 3-phosphoinositide-dependent protein kinase 1 (Homo sapiens, UniProt O15530).
T1 sequence (O15530 whole entry): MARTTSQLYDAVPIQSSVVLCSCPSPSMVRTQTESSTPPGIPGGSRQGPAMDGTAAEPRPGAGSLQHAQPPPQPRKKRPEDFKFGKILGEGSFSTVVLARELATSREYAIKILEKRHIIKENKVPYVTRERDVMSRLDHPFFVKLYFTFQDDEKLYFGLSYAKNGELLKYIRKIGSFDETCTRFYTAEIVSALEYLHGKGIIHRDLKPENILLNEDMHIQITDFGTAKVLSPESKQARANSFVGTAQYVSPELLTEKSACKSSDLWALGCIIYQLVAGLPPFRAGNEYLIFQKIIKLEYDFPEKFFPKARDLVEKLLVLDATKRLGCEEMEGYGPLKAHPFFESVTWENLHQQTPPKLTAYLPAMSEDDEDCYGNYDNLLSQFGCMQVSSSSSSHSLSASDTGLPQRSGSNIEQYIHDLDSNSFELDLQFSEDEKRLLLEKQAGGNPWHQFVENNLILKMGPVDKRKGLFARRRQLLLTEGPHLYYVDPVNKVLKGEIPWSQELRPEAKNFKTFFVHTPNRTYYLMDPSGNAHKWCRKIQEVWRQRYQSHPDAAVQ
As to the kind of experiment: Inhibition of PDK1 (unknown origin) using PDKtide substrate and [gamma-32P]ATP by scintillation counting method.

Assay [2] has as its target T2, 3-phosphoinositide-dependent protein kinase 1 (Homo sapiens) (UniProt O15530).
T2 sequence (whole entry): T1 sequence (O15530 whole entry)
As to the kind of experiment: Inhibition of PDK1 (unknown origin) at 10 uM using PDKtide substrate and [gamma-32P]ATP by scintillation counting method.

As usually defined, the IC50 is the point on the concentration scale where inhibition reaches its midpoint. Read a high IC50 as lower potency. On to `CN[C@@H]1CCc2ccccc21`, for which half-maximal inhibition in assay [1] (IC50) was put at 200 nM.
What is called inhibition is the share of the control response that was lost under treatment. Low readings indicate a response near the control, high ones a response far below the control. In turn, `NC(=O)Nc1ccc2[nH]c(=O)c(Nc3cc(CC(=O)NCCN4CCCCC4)cc(NC(=O)N4CCCC4)c3)cc2c1` gave an inhibition in assay [2] of 40%.
In the case of `O=C(Nc1ccc2[nH]c(=O)c(Nc3cccc(-c4nnn[nH]4)c3)cc2c1)N1CCCC1`, the inhibition in assay [2] is 14%.
As for `O=C(Cc1ccc2[nH]c(=O)c(Nc3ccccc3)cc2c1)NCCN1CCCCC1`, in assay [2], the inhibition is 36%.
Turning to `CC(=O)Nc1cccc(Nc2cc3cc(NC(N)=O)ccc3[nH]c2=O)c1`, the inhibition in assay [2] came to 20%.
Regarding `NC(=O)Nc1ccc2[nH]c(=O)c(Nc3cccc(NC(=O)N4CCCC4)c3)cc2c1`, in assay [2], the inhibition was 40%.
Compound `COc1cccc(-c2cccc(Nc3cc4cc(NC(=O)N5CCCC5)ccc4[nH]c3=O)c2)c1` displayed an inhibition in assay [2] of 29%.
On to `CCOc1cccc(Nc2cc3cc(NC(=O)N4CCCC4)ccc3[nH]c2=O)c1`, for which the inhibition in assay [2] amounted to 23%.
As for `N#Cc1cccc(Nc2cc3cc(NC(=O)N4CCCC4)ccc3[nH]c2=O)c1`, the inhibition in assay [2] stood at 30%.
